Like-named read-outs stand apart in the source and are kept apart here. Marks after values point to notes of the source that are not given here.

Consider 57 molecules from US8501781B2 (priority 2009, dated 2013).

This data set in a line: logP by HPLC (EEC Directive 79/831 Annex V.A8). Format: physicochemical.
[1] abbreviates: [b] LC-MS, acidic range, pH 2.7, 0.1% aqueous formic acid and acetonitrile.
[2] abbreviates: [c] LC-MS, neutral range, pH 7.8, 0.001 molar aqueous ammonium bicarbonate and acetonitrile.
Setting [3] is: pH 2.7, given in the preparation examples, read-out: log P (pH 2.7).

What is called logP is a log measure of how a compound divides between an organic and an aqueous phase. Low values mean lower lipophilicity, high ones higher lipophilicity. As for `Cc1ccc(C)c(NC(=O)N2CCC(c3nc(C(=O)OC(C)c4c(Cl)cccc4Cl)cs3)CC2)c1` (stereo not shown) [Example 156], the lipophilicity (logP) under setting [1] was 4.35^[b].
Same read-out and setting: next, `Cc1ccc(F)c(NC(=O)N2CCC(c3nc(C(=O)OC4CCCc5ccccc54)cs3)CC2)c1` (stereo not shown) [Example 80]: 4.08^[b].
Molecule `Cc1cc(C(F)(F)F)nn1CC(=O)N1CCN(c2nc(C(=O)SCc3ccccc3Cl)cs2)CC1` [Example 49] gave a lipophilicity (logP) under setting [1] of 4.29 and a logP under setting [2] of 4.32.
With `Cc1cc(C(F)(F)F)nn1CC(=O)N1CCN(c2nc(C(=O)OC3Cc4ccccc4C3)cs2)CC1` [Example 41], the logP by setting is: under setting [1], 3.64; under setting [2], 3.56.
As for `Cc1noc(C)c1NC(=O)N1CCC(c2nc(C(=O)OC3CCCCC3)cs2)CC1` [Example 76], the log partition coefficient (logP) under setting [1] was 2.66^[b].
As for `Cc1ccc(C)c(NC(=O)N2CCC(c3nc(C(=O)OCc4ccncc4Cl)cs3)CC2)c1` [Example 139], the logP under setting [1] was 2.77^[b].
Take `Cn1nc(C(F)(F)F)cc1OC(=O)N1CCC(c2nc(C(=O)OC3CCCCC3)cs2)CC1` [Example 109]: the lipophilicity (logP) is recorded as 4.36 under setting [1] and 4.37 under setting [2].
Take `CC(C)(C)OC(=O)N1CCC(c2nc(C(=O)O)cs2)CC1` [XXXI-1, 2-[1-(tert-Butoxycarbonyl)piperidin-4-yl]-1,3-thiazole-4-carboxylic acid]: under setting [3], the chromatographic logP worked out at 2.04.
`Cc1ccc(C)c(NC(=O)N2CCC(c3nc(C(=O)Oc4ccccc4Cl)cs3)CC2)c1` [Example 148]: the logP under setting [1] is 3.51^[b].
In the case of `O=C(OC1CCCCC1)c1csc(C2CCN(C(=O)Cc3cc(C(F)(F)F)ccc3C(F)(F)F)CC2)n1` [Example 16], the logP under setting [1] is 4.81^[b].
Take `O=C(OCc1ccccc1Br)c1csc(C2CCN(C(=S)Nc3cc(C(F)(F)F)ccc3F)CC2)n1` [Example 118]: the log partition coefficient (logP) reads like this: under setting [1], 4.34; under setting [2], 4.37.
For `Cc1ccc(Cl)cc1NC(=O)N1CCC(c2nc(C(=O)OCc3ccccc3Br)cs2)CC1` [Example 85], in that order: 4.04 and 4.06.
As to `O=C(OC1CCCCC1)c1csc(C2CCN(S(=O)(=O)Cc3cc(F)ccc3F)CC2)n1` [Example 30, Cyclohexyl 2-{1-[(2,5-difluorobenzyl)sulphonyl]piperidin-4-yl}-1,3-thiazole-4-carboxylate], under setting [3], the chromatographic logP came out at 4.05.
As for `COc1ccc(C)cc1NC(=O)N1CCC(c2nc(C(=O)OC3CCCc4ccccc43)cs2)CC1` (stereo not shown) [Example 82], the logP under setting [1] was 4.33^[b].
Still for that read-out and setting: for `Cc1ccc(C)c(NC(=O)N2CCC(c3nc(C(=O)Oc4c(F)cccc4Br)cs3)CC2)c1` [Example 152] the value was 3.86^[b].
Take `O=C(OC1CCCc2ccccc21)c1csc(C2(F)CCN(C(=O)Cn3nc(C(F)F)cc3C(F)F)CC2)n1` (stereo not shown) [Example 68]: the log partition coefficient (logP) under setting [1] is 4.12^[b].
On the same count and under the same terms, next, `Cc1ccc(C)c(NC(=S)N2CCC(c3nc(C(=O)OC4CCCCC4)cs3)CC2)c1` [Example 63]: 4.17^[b]; `O=C(OC1CCCCC1)c1csc(C2CCN(C(=O)Cc3cc(Cl)ccc3C(F)(F)F)CC2)n1` [Example 18]: 4.68^[b].
Consider `Cc1cc(CC(=O)N2CCC(c3nc(C(=O)OC4CCCCC4)cs3)CC2)n(C)n1` [Example 86], for which the log partition coefficient (logP) is recorded as 2.6 under setting [1] and 2.67 under setting [2].
For `Cc1ccc(C)c(NC(=O)N2CCC(c3nc(C(=O)Oc4c(C)cccc4Br)cs3)CC2)c1` [Example 141], the logP under setting [1] was 3.82^[b].
Still for that read-out and setting: next, `O=C(Oc1cccc2ccccc12)c1csc(C2CCN(C(=O)Cc3cccc(C(F)(F)F)c3)CC2)n1` [Example 1]: 4.16^[b].
`Cc1cc(C(F)(F)F)nn1CC(=O)N1CCN(c2nc(C(=O)OC3CCCCC3)cs2)CC1` [Example 46, Cyclohexyl 2-(4-{[5-methyl-3-(trifluoromethyl)-1H-pyrazol-1-yl]acetyl}piperazin-1-yl)-1,3-thiazole-4-carboxylate]: the chromatographic logP was 3.68 ([c] LC-MS, neutral range, pH 7.8, 0.001 molar aqueous ammonium bicarbonate and acetonitrile, read-out: logP); 3.69 under setting [3].
`O=C(OC1CCCCC1)c1csc(C2CCN(C(=S)Nc3cc(F)ccc3F)CC2)n1` [Example 67]: under setting [1], the log partition coefficient (logP) is 3.86^[b].
With `Cc1cc(C(F)(F)F)nn1CC(=O)N1CCN(c2nc(C(=O)OCc3ccc(Cl)cc3Cl)cs2)CC1` [Example 44], the logP by setting is: under setting [1], 4.12^[c]; 4.12^[b]; under setting [2], 4.12^[c]; 4.12^[b].
Regarding `Cc1ccc([N+](=O)[O-])cc1NC(=O)N1CCC(c2nc(C(=O)OC3CCCCC3)cs2)CC1` [Example 94], the lipophilicity (logP) under setting [1] was 3.62^[b].
On to `COc1ccc(C)cc1NC(=O)N1CCC(F)(c2nc(C(=O)OC3CCCCC3)cs2)CC1` [Example 169], for which the lipophilicity (logP) is 4.4 under setting [1] and 4.42 under setting [2].
Consider `Cc1ccc(C)c(NC(=O)N2CCC(F)(c3nc(C(=O)O[C@@H]4CCCc5ccccc54)cs3)CC2)c1` [Example 126], for which the logP under setting [1] was 4.30^[b].
For `Cc1ccc(C)c(CC(=O)N2CCC(c3nc(C(=O)OC4CCCc5ccccc54)cs3)CC2)c1` (stereo not shown) [Example 96], the logP under setting [1] was 4.54^[b].
As to `Cc1cc(CC(=O)N2CCC(c3nc(C(=O)Oc4cccc5ccccc45)cs3)CC2)c(C)s1` [Example 25], the lipophilicity (logP) under setting [1] is 4.12^[b].
For the molecule `O=C(Oc1cccc2ccccc12)c1csc(C2CCN(C(=O)Cc3cc(C(F)(F)F)ccc3Cl)CC2)n1` [Example 11], the log partition coefficient (logP) under setting [1] is 4.56^[b].
As to `Cc1cc(C(F)(F)F)nn1CC(=O)N1CCN(c2nc(C(=O)OCc3c(F)cccc3F)cs2)CC1` [Example 51], the logP is, setting by setting: under setting [1], 3.28; under setting [2], 3.33.
With `Cc1ccc(C(F)(F)F)cc1OC(=O)N1CCC(c2nc(C(=O)OC3CCCCC3)cs2)CC1` [Example 38, 2-Methyl-5-(trifluoromethyl)phenyl 4-{4-[(cyclohexyloxy)carbonyl]-1,3-thiazol-2-yl}piperidine-1-carboxylate], the chromatographic logP under setting [3] turned out to be 5.28.
Turning to `O=C(OCc1ccccc1Br)c1csc(C2CCN(C(=S)Nc3cc(F)ccc3Br)CC2)n1` [Example 114], the logP runs as follows: under setting [1], 4.04; under setting [2], 4.02.
Consider `Cc1cc(C(F)(F)F)nn1CC(=O)N1CCN(c2nc(C(=O)Sc3ccc(Cl)cc3Cl)cs2)CC1` [Example 47], for which the logP was determined as 4.49 under setting [1] and 4.5 under setting [2].
For `Cc1cccc(COC(=O)c2cnc(C3CCN(C(=O)Cn4nc(C(F)F)cc4C(F)F)CC3)s2)c1C` [Example 177], the logP under setting [1] is 4.00^[b].
In the case of `O=C(OC1CCCCC1)c1csc(C2CCN(C(=O)Cc3cc(Br)ccc3Br)CC2)n1` [Example 15, Cyclohexyl 2-{1-[(2,5-dibromophenyl)acetyl]piperidin-4-yl}-1,3-thiazole-4-carboxylate], under setting [3], the chromatographic logP was found to be 4.72.
Regarding `O=C(OC1CCCCC1)c1csc(C2CCN(C(=O)Cc3nc(C(F)(F)F)ccc3Cl)CC2)n1` [Example 52], under setting [1], the logP was 4.08^[b].
The same measure, in the same setting: next, `Cc1ccc(C)c(NC(=O)N2CCC(c3nc(C(=O)Oc4c(F)cccc4F)cs3)CC2)c1` [Example 150]: 3.39^[b].
On the same count and under the same terms, next, `O=C(OC1CCCCC1)c1csc(C2CCN(C(=O)C(=O)c3cccs3)CC2)n1` [Example 55]: 3.46^[b].
Molecule `Cc1cc(C(F)(F)F)nn1CC(=O)N1CCN(c2nc(C(=O)OC3CCc4ccccc4C3)cs2)CC1` (stereo not shown) [Example 42] yielded a logP under setting [1] of 3.87 and a logP under setting [2] of 3.82.
For `O=C(OCc1ccccc1Br)c1csc(C2CCN(C(=O)Nc3cc(F)ccc3F)CC2)n1` [Example 84] the same measures were 3.79^[c]; 3.79^[b] and 3.79^[c]; 3.79^[b].
On to `Cc1cc(C(F)(F)F)nn1CC(=O)N1CCN(c2nc(C(=O)OCc3ccc(F)cc3F)cs2)CC1` [Example 53], for which the log partition coefficient (logP) by setting is: under setting [1], 3.42; under setting [2], 3.45.
As to `Cc1ccc(I)cc1CC(=O)N1CCC(c2nc(C(=O)OC3CCCCC3)cs2)CC1` [Example 19], under setting [1], the logP was 4.66^[b].
Regarding `O=C(OC1CCCCC1)c1csc(C2CCN(C(=O)Cc3cccc(C(F)(F)F)c3)CC2)n1` [Example 2], under setting [1], the log partition coefficient (logP) was 4.21^[b].
Still for that read-out and setting: for `Cc1cc(CC(=O)N2CCC(c3nc(C(=O)OC4CCCCC4)cs3)CC2)c(C)s1` [Example 20] the value was 4.24^[b].
The same measure, in the same setting: next, `Cc1nc(C)n(CC(=O)N2CCC(c3nc(C(=O)OC4CCCCC4)cs3)CC2)n1` [Example 29]: 2.08^[b].
`Cc1cc(C(F)(F)F)nn1CC(=O)N1CCN(c2nc(C(=O)Oc3ccccc3Cl)cs2)CC1` [Example 39]: the log partition coefficient (logP) by setting is: under setting [1], 3.46; under setting [2], 3.41.
As for `O=C(OC1CCCCC1)c1csc(C2CCN(C(=O)CCCC(F)(F)C(F)(F)F)CC2)n1` [Example 57], the logP under setting [1] was 4.22^[b].
Still for that read-out and setting: next, `COc1cccc(F)c1OC(=O)c1csc(C2CCN(C(=O)Nc3cc(C)ccc3C)CC2)n1` [Example 145]: 3.28^[b].
The same measure, in the same setting: for `Cc1nc(CC(=O)N2CCC(c3nc(C(=O)OC4CCCCC4)cs3)CC2)c(C)s1` [Example 27] the value was 3.02^[b].
Consider `Cc1ccc(F)c(NC(=O)N2CCC(c3nc(C(=O)OCc4ccccc4Br)cs3)CC2)c1` [Example 92], for which the logP runs as follows: under setting [1], 3.85; under setting [2], 3.83.
With `O=C(OC1CCCCC1)c1csc(C2(F)CCN(C(=O)Cn3nc(C(F)F)cc3C(F)F)CC2)n1` [Example 69], the lipophilicity (logP) under setting [1] was 3.91^[b].
Take `COc1ccc(Cl)cc1NC(=O)N1CCC(c2nc(C(=O)OCc3ccccc3Br)cs2)CC1` [Example 105]: the logP is 4.35 under setting [1] and 4.36 under setting [2].
Take `Cc1cc(C(F)(F)F)nn1CC(=O)N1CCN(c2nc(C(=O)Sc3cc(C(F)(F)F)ccc3Cl)cs2)CC1` [Example 33]: the log partition coefficient (logP) under setting [1] was 4.51^[b].
On the same count and under the same terms, for `O=C(OC1CCCCC1)c1csc(C2CCN(C(=O)Cc3cccc(Cl)c3)CC2)n1` [Example 9] the value was 4.04^[b].
The same measure, in the same setting: for `Cc1ccc(C)c(NC(=O)N2CCC(c3nc(C(=O)OCc4c(Cl)cccc4Cl)cs3)CC2)c1` [Example 137] the value was 3.97^[b].
`Cc1cc(C(F)(F)F)nn1CC(=O)N1CCC(F)(c2nc(C(=O)OCc3c(F)cccc3F)cs2)CC1` [Example 165]: the logP by setting is: under setting [1], 3.65; under setting [2], 3.67.
